Source: paper PMC12813973, “Consequences of Peptide Macrocyclization Revealed by Virus-Inspired β‑Hairpin Mimetics” (ACS Chemical Biology, 2025)
Where two headings read alike, the source gives them in different places. *1 amine or outer side, *2 acyl side, *3 side chain or, on linkers, in order; H or OH if unused. Where a SMILES comes first, the peptide text is derived from it. Bridges are numbered along the chain shown (N, C = ends). [ ]: non-standard residue; d: D form. oXylylene = c1ccc(C[*:2])c(C[*:1])c1; βAla = NCCC(=O)O

Assays:
[1] = target: Peptide 2 (head-to-tail monocyclic 018 11-30) none (wild-type side chains; added beta-Ala-beta-Ala linker); experiment: isothermal titration calorimetry (ITC); conditions: pH 8.0; 300 mM NaCl; 50 mM Tris pH 8.0 (TBST)
[2] = target: Peptide 4 (bicyclic: head-to-tail plus o-xylyl C15/C26 cross-link) residue 15 to Cys (native residue not given); K26C; both S-alkylated by the o-xylyl bridge; experiment: isothermal titration calorimetry (ITC); conditions: pH 8.0; 300 mM NaCl; 50 mM Tris pH 8.0 (TBST)
[3] = target: T1, STAT1 (Homo sapiens, UniProt P42224); experiment: Grating-coupled interferometry (GCI) waveRAPID kinetics, immobilised full-length STAT1; format: binding; conditions: for Kd: 20 mM HEPES pH 7.5, 300 mM NaCl, 0.01% Tween-20, 1:1 kinetic model, average of 2–4 technical replicates ± SD, SD; for kon at 0.5 µM / kd: analyte 0.5 µM; for kon at 0.5 µM: read-out: ka
T1 construct: full-length STAT1 (Uniprot #P42224-1) was expressed in E. coli; His tag (pEXP-NHis vector) (N); made in house; host or cells: E. coli T7 Express
T1 sequence (P42224 1-750): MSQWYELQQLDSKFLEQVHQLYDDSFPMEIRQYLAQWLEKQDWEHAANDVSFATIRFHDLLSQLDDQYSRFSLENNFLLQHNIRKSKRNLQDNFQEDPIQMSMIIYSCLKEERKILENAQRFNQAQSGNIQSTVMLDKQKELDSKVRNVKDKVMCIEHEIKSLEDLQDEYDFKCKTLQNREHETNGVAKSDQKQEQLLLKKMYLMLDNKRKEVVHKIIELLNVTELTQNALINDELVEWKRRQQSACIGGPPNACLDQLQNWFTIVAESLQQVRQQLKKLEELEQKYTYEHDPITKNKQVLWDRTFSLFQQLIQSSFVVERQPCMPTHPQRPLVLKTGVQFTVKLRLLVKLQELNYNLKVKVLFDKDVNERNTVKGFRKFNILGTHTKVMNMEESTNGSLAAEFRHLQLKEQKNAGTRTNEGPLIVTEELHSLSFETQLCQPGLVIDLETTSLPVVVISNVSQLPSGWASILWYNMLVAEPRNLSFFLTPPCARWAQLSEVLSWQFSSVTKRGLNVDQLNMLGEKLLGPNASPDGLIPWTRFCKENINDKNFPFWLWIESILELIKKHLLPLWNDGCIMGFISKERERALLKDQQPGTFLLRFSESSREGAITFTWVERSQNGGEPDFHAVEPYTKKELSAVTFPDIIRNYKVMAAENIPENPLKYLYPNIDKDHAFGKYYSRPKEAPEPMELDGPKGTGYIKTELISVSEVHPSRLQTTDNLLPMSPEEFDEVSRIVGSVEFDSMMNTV
Text: Understanding the molecular determinants of kinetic rate constants of binding (k a, k d) can aid the design of pharmacological probes with longer target engagement, which is beneficial for drug efficacy and decreased toxicity. , We characterized the binding kinetics of 018-derived macrocycles by using grating-coupled interferometry (GCI). We used waveRAPID, a regeneration-free kinetic binding assay that applies sequential analyte pulses of increasing duration onto a GCI biosensor surface with an immobilized target (Figures A, and S3,S4, Table S2).
(§1) Grating coupled interferometry (GCI)
(§2) GCI experiments were performed on a Creoptix WaveDELTA instrument (Malvern Panalytical). Full-length STAT1 or STAT3 were immobilised on a 4PCH chip (Malvern Panalytical #4PCH-03) to a density 2000-8000 pg/mm2 using EDC/NHS activation followed by amine coupling. Briefly, proteins (500 nM) were applied onto an activated chip in 10 mM MES pH 6.5, 20 mM NaCl, after which the chip surface was passivated with 1M ethanolamine, pH 8.0.
(§3) The kinetic measurements were perfor med using 20 mM HEPES pH 7.5, 300 mM NaCl, 0.01% Tween-20, 0.0005% DMSO as running buffer. Peptides were tested at 0.5 or 10 μM concentration using the waveRAPID kinetics experiment with the tight binder or intermediate binder mode, respectively.[4] Sensorgrams were fitted in the waveControl software (Malven Panalytical) using the 1:1 kinetic model. […]

[4] = Solubility as required for ITC titration; format: physicochemical; conditions: ITC needs approximately 100-200 μM peptide in reaction buffer with 2% DMSO
[5] = target: T2, STAT3 (Homo sapiens, UniProt P40763); experiment: biochemical; format: binding; conditions: for Kd: full-length STAT3 on 4PCH chip, average of technical replicates ± SD (Fig 3E), SD, read-out: STAT3 KD (GCI waveRAPID); for kon: read-out: ka; for KD: analyte 10 µM (1, 3, 5) or 0.5 µM (4, 6), n.b. – no binding observed
T2 construct: STAT3: the gene encoding full-length STAT3 was codon optimised for expression in; MBP (pEXP-MBP vector) (cleaved yes); His tag (IMAC capture, removed with the fusion by TEV and reverse IMAC) (cleaved yes); made in house; host or cells: E. coli T7 Express
T2 sequence (P40763 whole entry, species assumed, the tested form may be a part): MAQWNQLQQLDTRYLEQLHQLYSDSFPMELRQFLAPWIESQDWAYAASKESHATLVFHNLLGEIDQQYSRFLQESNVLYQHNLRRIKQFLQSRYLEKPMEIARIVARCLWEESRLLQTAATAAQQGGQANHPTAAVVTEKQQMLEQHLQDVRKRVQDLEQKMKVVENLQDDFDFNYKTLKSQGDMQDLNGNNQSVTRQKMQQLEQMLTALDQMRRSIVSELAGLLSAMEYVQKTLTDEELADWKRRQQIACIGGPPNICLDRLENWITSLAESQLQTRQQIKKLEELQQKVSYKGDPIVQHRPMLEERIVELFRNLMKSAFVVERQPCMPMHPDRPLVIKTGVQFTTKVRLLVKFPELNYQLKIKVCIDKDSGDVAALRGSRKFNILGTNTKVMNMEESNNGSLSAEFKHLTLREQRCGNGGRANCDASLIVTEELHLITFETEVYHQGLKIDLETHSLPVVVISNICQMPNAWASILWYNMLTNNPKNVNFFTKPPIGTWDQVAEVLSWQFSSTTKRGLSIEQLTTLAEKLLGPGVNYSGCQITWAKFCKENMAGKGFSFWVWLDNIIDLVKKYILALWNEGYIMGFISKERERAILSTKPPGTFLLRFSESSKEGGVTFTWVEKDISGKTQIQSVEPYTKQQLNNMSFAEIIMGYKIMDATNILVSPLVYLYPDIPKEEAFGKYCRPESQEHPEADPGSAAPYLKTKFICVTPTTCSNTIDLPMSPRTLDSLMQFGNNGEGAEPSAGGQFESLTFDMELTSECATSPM
Method: In such PPIs, the bulk of the binding energy contribution typically stems from backbone interactions, whereas binding specificity is fine-tuned by side-chain contacts. […] We evaluated the binding kinetics of peptides to full-length STAT3 using GCI.
as §1, §2, §3
GCI sensorgrams depicting RAPID kinetics measurements and fitted kinetic models for peptide binding to full-length STAT3 immobilised on a polycarboxylate hydrogel chip (4PCH). Peptides were applied at 0.5 or 10 μM concentration using the medium or tight binders pulse sequence. The peptides that show negligible Rmax values at 10 μM analyte concentration were classified as non-binding.
(1 picture or pasted object on this page, not shown here)

[6] = target: T1, STAT1; experiment: Fluorescence polarization competition assay with fluorescein-labelled pIFNGR1 docking site peptide probe; format: binding; conditions: 10 nM fluorescein pIFNGR1 probe, STAT1 1.5 μM, 20 mM Tris pH 8.0, 300 mM NaCl, 0.1% Tween-20, 0.5 mM TCEP, 2.5% DMSO, room temperature; four parameter logistic fit; read-out: IC50 (FP competition, pIFNGR1 probe displacement)
[7] = target: T1, STAT1; experiment: Isothermal titration calorimetry (ITC) of peptide binding to STAT1; conditions: average of 2–3 technical replicates, read-out: KD (ITC, summary Fig 2B)
Method: To determine affinities and thermodynamic profiles of binding, we performed isothermal titration calorimetry (ITC) experiments for peptides 1, 2, 3, 4, 7, and 8 (Figures A,B and S1,S2, Table S1). […] The experiments were repeated in two different buffer systems, TBST (50 mM Tris pH 8.0, 300 mM NaCl, 0.01% Tween-20) and PBST ([…], 150 mM NaCl, 0.01% Tween-20), to account for possible buffer protonation enthalpy artifacts. […]
Isothermal titration calorimetry (ITC)
ITC experiments were performed using a PEAQ ITC instrument (Malvern Panalytical) in either TBST (50 mM Tris pH 8.0, 300 mM NaCl, 0.5 mM TCEP, 0.01% Tween -20) or PBST (10 mM sodium phosphate pH 7.4, 150 mM NaCl, 0.01% Tween -20) as reaction buffers. STAT1 protein was buffer -exchanged into reaction buffer supplemented with 2% DMSO on a NAP -5 deslating column (Cytiv a #17085301) and its concentration was adjusted to 10 or 20 μM.
Peptides were diluted in reaction buffer from DMSO stocks to a matching 2% DMSO concentration. Peptide concentrations were adjusted to approximately 100-200 μM. ITC experiments were performed with STAT1 in the cell and peptides in the syringe at 25°C, with 750 RPM stirring, DP = 4 μcal/sec. 18 injections of 2 μl were performed over a 50 min titration.
Thermogram integra tion and isotherm fitting were performed using the PEAQ ITC analysis software (Malvern Panalytical ). Isotherms were fitted using a 1:1 binding model. Due to challenges in determining peptide concentrations with high accuracy , protein concentrations and stoichiometry (N=1.0) were kept constant during isotherm fitting, whereas peptide concentrations were allowed to vary. Fixing a single reactant concentration during fitting is acceptable given the sufficiently high C -values and isotherm curvature observed in the […]
Offset subtraction was implemented to remove injection heats.

[8] = replicate 1 (first listed run, Table S2)
[9] = replicate 2 (second listed run, Table S2)
[10] = replicate 3 (third listed run, Table S2)
[11] = replicate 4 (fourth listed run, Table S2)

Molecule | KD [1] [nM] | KD [2] [nM] | Kd [3] [nM] | kon at 0.5 µM [3, 8] [M⁻¹ s⁻¹] | kon at 0.5 µM [3, 9] [M⁻¹ s⁻¹] | kon at 0.5 µM [3, 10] [M⁻¹ s⁻¹] | kon at 0.5 µM [3, 11] [M⁻¹ s⁻¹] | solubility (for ITC titration) [4] | ka [5] [M⁻¹ s⁻¹] | Kd [5] [nM] | kon [5] [M⁻¹ s⁻¹] | kd [3, 8] [s⁻¹] | kd [3, 9] [s⁻¹] | KD [5, 8] | KD [5, 9] | STAT3 binding (GCI), in words ([5]; full-length STAT3, negligible Rmax at 10 μM classified as non-binding) | IC50 [6] [nM] | Kd ([7]; PBST pH 7.4 (NaPi, 150 mM NaCl, 0.01% Tween-20)) [nM] | Kd ([7]; TBST pH 8.0) [nM]
STAT1 (signal transducer and activator of transcription 1), unphosphorylated not stated for the ITC sample | 330 ± 20 | 24 ± 15 | – | – | – | – | – | – | – | – | – | – | – | – | – | – | – | – | –
CC[C@H](C)[C@@H]1NC(=O)[C@H](Cc2ccccc2)NC(=O)[C@H](C(C)C)NC(=O)[C@@H](NC(=O)[C@H](Cc2c[nH]c3ccccc23)NC(=O)[C@H](CCSC)NC(C)=O)CSCc2ccccc2CSC[C@@H](C(=O)N[C@@H](Cc2ccc(O)cc2)C(=O)N[C@H](C(N)=O)[C@@H](C)O)NC(=O)[C@H](CCCCN)NC(=O)[C@H](CO)NC(=O)CNC(=O)[C@H](CCCCN)NC(=O)[C@H](CC(N)=O)NC(=O)[C@H](CO)NC(=O)CNC(=O)[C@H](CC(=O)O)NC(=O)[C@H](Cc2c[nH]cn2)NC(=O)CNC(=O)[C@H](Cc2c[nH]cn2)NC1=O [Peptide 6] | – | – | 1.3 ± 1.1 | 377000 | 304000 | 186000 | 384000 | insufficient solubility | 280000 | 196 ± 12 | 252000 | – | – | – | – | – | – | – | –
CC[C@H](C)[C@H](NC(=O)[C@H](Cc1ccccc1)NC(=O)[C@@H](NC(=O)[C@H](CS)NC(=O)[C@H](Cc1c[nH]c2ccccc12)NC(=O)[C@H](CCSC)NC(C)=O)C(C)C)C(=O)N[C@@H](Cc1c[nH]cn1)C(=O)NCC(=O)N[C@@H](Cc1c[nH]cn1)C(=O)N[C@@H](CC(=O)O)C(=O)NCC(=O)N[C@@H](CO)C(=O)N[C@@H](CC(N)=O)C(=O)N[C@@H](CCCCN)C(=O)NCC(=O)N[C@@H](CO)C(=O)N[C@@H](CCCCN)C(=O)N[C@@H](CS)C(=O)N[C@@H](Cc1ccc(O)cc1)C(=O)N[C@H](C(N)=O)[C@@H](C)O [Peptide 5] | – | – | 31.9 ± 4.3 | 351000 | 457000 | – | – | insufficient solubility | – | – | – | 0.0123 | 0.0132 | n.b. | n.b. | not detected | – | – | –
CC[C@H](C)[C@@H]1NC(=O)[C@@H]2CSCc3ccccc3CSC[C@H](NC(=O)CNC(=O)[C@H](CCCCN)NC(=O)[C@H](CC(N)=O)NC(=O)[C@H](CO)NC(=O)CNC(=O)[C@H](CC(=O)O)NC(=O)[C@H](Cc3c[nH]cn3)NC(=O)CNC(=O)[C@H](Cc3c[nH]cn3)NC1=O)C(=O)N[C@@H](CCCCN)C(=O)N[C@@H]([C@@H](C)O)C(=O)N[C@@H](Cc1ccc(O)cc1)C(=O)N[C@@H]([C@@H](C)O)C(=O)NCCC(=O)NCCC(=O)N[C@@H](CCSC)C(=O)N[C@@H](Cc1c[nH]c3ccccc13)C(=O)N[C@@H](CO)C(=O)N[C@@H](C(C)C)C(=O)N2 [Peptide 4] (cyclo(CIHGHDGSNKGCKTYT[βAla][βAla]MWSV); linker 1-12 via oXylylene) | – | – | – | 658000 | 594000 | 277000 | 865000 | – | 239000 | 248 ± 10.6 | 257000 | – | – | – | – | – | 1100 | 14 | 24
